From US6338963B1, “Use of carbon monoxide dependent guanylyl cyclase modifiers to stimulate neuritogenesis” (NeoTherapeutics, Inc., priority 1994, dated 2002)

What was measured:
[1] = tested on: C57BL/6 mice; experiment: Ethanol-induced working memory deficit (win-shift); type: in vivo; details: Ethanol 0.5 gm/kg i.p. ten minutes prior to testing
Method: Six month old male C57BL/6 mice were evaluated in the win-shift model in combination with treatment with ethanol, a non-specific memory suppressant, and AIT-082. Subjects were treated with saline (control) or AIT-082 (30 mg/kg. i.p.) 1 hour prior to testing. Ethanol was administered at a dose of 0.5 gm/kg i.p. ten minutes prior to testing.

[2] = tested on: neocortical astrocytes; experiment: NGF-like immunoreactivity in astrocyte culture medium (ELISA); type: cell-based, mouse; details: astrocytes incubated with different concentrations
Method: Astrocytes appear to proliferate in response to extracellular guanosine or guanosine triphosphate (GTP). GTP or guanosine may also stimulate the release of trophic factors from cultures of neocortical astrocytes from neonatal mouse brains. Astrocytes were incubated with different concentrations of guanosine or GTP respectively. Neurotrophin imunoreactivity in the culture medium from treated cells was then measured by ELISA.
Briefly, 96 well Falcon plates (Fisher) were coated with […] of sheep mono-specific anti-NGF IgG (affinity column purified) contained in 0.1M sodium carbonate buffer pH 9.6. After an overnight incubation at 4° C. blocking solution (PBS with 10% goat serum) was added to remove excess antibody. After a four hour incubation at room temperature the plates were washed three times with PBS containing 0.05% Tween 20. The conditioned media and standard 2.5S HPLC purified NGF were added and incubated overnight. The next day plates were washed 3 times with PBS-0.05% Tween 20. The secondary antibody, rabbit mono-specific anti-NGF IgG conjugated with β-galactosidase (Pierce-SPDP method) (1:500 dilution) was added. The plates were incubated overnight at 4° C. The next day the plates were washed 3 times with PBS-0.05% Tween 20. […]
The ELISA assay detected neurotrophins NGF and NT-3 with ahnost equal affinity and BDNF with 100 times less affinity. […]

[3] = tested on: rat cultured astrocytes; experiment: Release of radioactively labeled adenine-based purines from rat cultured astrocytes; type: cell-based; details: 300 μM, 1 hour
Method: The experiments were carried out on cultured astrocytes of rat hippocampus at the fourth day in vitro (DIV), obtained from primary cultures replated in 35 mm Petri dishes ([…] cells/dish) and preloaded with [^3H]-adenosine (5×10^−8 M for a specific activity of 20.0 Ci/mM) for 30 minutes at 37° C.
The effect of AIT-082 on the proportional release of radioactively labeled adenine nucleosides and nucleotides from rat cultured astrocytes is shown in FIGS. 29A and 29B. Culture medium collected during the first hour of the release was analyzed by high performance liquid chromatography (HPLC) and the radioactivity associated with the different adenine compounds was measured and expressed as a percentage of the total radioactivity released. The results are shown for ATP, ADP, and AMP in FIG. 29A, and for adenosine, inosine, and hypoxanthine in FIG. 29B.

[4] = tested on: rat cultured astrocytes; experiment: as above; type: cell-based; details: 300 μM
[5] = tested on: PC12 cells; experiment: Neuritogenesis in PC12 cells; type: cell-based, rat
Method: Much of the work performed in the characterization of the compounds of the present invention involved the use of PC12 cells. These cells are derived from a rat pheochromocytoma and when grown in the presence of NGF, extend neurites, cease cell division and assume many characteristics of sympathetic neurons. When cultured in the absence of nerve growth factor (NGF), few PC12 cells have neurites greater than one cell diameter. Addition of saturating concentrations of NGF for 48 hours stimulates neurite outgrowth in about 20-35% of the cells. Because they constitute a homogeneous population of neuronal-like cells, without contaminating astroglia type cells, it is possible to study the direct effects of the purine based compounds on neurite outgrowth in these cells.
Cells cultured in RPMI 1640 with 1.5% horse serum and 1.5% fetal bovine serum were re-plated onto poly-ornithine coated 24-well culture plates (2.5×10^4 cells per well). AIT-082 and NGF were added to the various cultures immediately upon plating. After 48 hours, medium was removed and the cells irnmediately fixed in 10% formalin and PBS for 10 minutes. Cells and neurites were counted within 2 days of fixation.
A neurite was defined as a process extending from the cell at least 1 cell body diameter in length and displaying a growth cone at its tip. For each treatment, 2 representative microscope fields were counted from each of 6 sister cultures receiving identical treatments. The total number of cells counted per well (approximately 100 cells) and the total number of cells containing neurites in each well were used to determine fraction of neurite-bearing cells. The mean values (±SEM) were then determined for each of the treatments. To facilitate comparison neurite outgrowth was expressed relative to the proportion of cells bearing neurites in the presence of NGF alone (NGF=100%). The effects of compounds with and without NGF were compared by analysis of variance (ANOVA) followed by Tukey's test for significance.
The results are shown in FIG. 3 where the curve represents different levels of AIT-082 plus saturating concentrations (40 ng/ml) NGF. The center horizontal line represents control values for cells cultured in the presence of 40 ng/ml NGF alone. Upper and lower horizontal lines are indicative of confidence limits of NGF alone as determined using standard statistical methods.

[6] = tested on: cGMP levels in PC12 cells; experiment: cGMP levels in PC12 cells (radioimmunoassay); type: cell-based, rat; details: NGF-primed PC12 cells
Method: Initially, PC-12 cells were primed with 40 ng/ml NGF for 3 days in low serum medium (1.5% horse serum+5% fetal calf serum). Cells were seeded onto assay plates in low serum medium containing 40 ng/ml NGF and incubated for 1 hour. The medium was changed to low arginine medium (80 μM) with no serum and NGF and papaverine ([…]) where indicated. Test compounds were added for the indicated time and the reaction was stopped by adding 5% TCA containing 10,000 dpm of ^3H-cGMP. cGMP was assayed by the radioimmunoassay method of Maurice (Mol. Pharmacol. 37: 671-681, 1990). TCA was purified by adding powdered charcoal (5 g) and filtering the mixture through Whatman #1 paper. This removed contaminants in the TCA that otherwise interfere with the radioimmunoassay (RIA) of cGMP.
It was necessary to purify the cGMP from cAMP and other contaminants before radioimmunoassay since these other materials can interfere with the assay. Briefly, the TCA solution was applied to Dowex columns (50W-8X, 200-400 mesh) and eluted. A neutral alumina column was then placed under each Dowex column. The cGMP was eluted from the Dowex columns into neutral alumina columns by adding 4 mL of 0.05 M HCl to each Dowex column. The neutral alumina columns were then sequentially rinsed with 2 ml of HCl, 4 mL water and finally with 0.2 M sodium acetate (pH 6.2). The cGMP collected for the RIA eluted in 1 ML of sodium acetate with a recovery between 50-65%. The cGMP was assayed using a Dupont RIA kit.

[7] = tested on: mice; experiment: T-maze memory test with atropine co-administration; type: in vivo; details: AIT-082 30 mg/kg i.p. 2 hr prior; atropine 0.5 mg/kg i.p. 1/2 hour prior to testing, day 3
Method: To elucidate the mechanisms by which AIT-082 improves memory, attempts were made to block its actions by co-administration of the short-acting cholinergic antagonist atropine to mice and subjecting them to simple learning tests. Atropine reportedly has the ability to block the effects of physostigmine and THA. Mice were injected with AIT-082 (30 mg/kg) 2 hr prior to testing on days 1 through 4. Atropine (0.5 mg/kg) was injected ½ hour prior to testing or 1.5 hours after AIT-082 on day 3 only. All injections were i.p. After a reference run to determine where the reward was placed in a T-maze, the mice were retested to determine if they could remember the location of the reward. The percentage of correct responses is graphically represented in FIG. 2.

CCO [Ethanol, ethanol, reference compound]
Correct trials (mean number of correct responses per 10 trials ± S.E.) [1]: 6.5 ± 26

Nc1nc2c(ncn2[C@@H]2O[C@H](COP(=O)(O)OP(=O)(O)OP(=O)(O)O)[C@@H](O)[C@H]2O)c(=O)[nH]1 [GTP, guanosine triphosphate, reference compound]
NGF-like immunoreactivity in the culture medium [2]: increased the amount of NGF-like immunoreactivity
ADP, proportional release [3]: (17.8 ± 2.6) percentage of the total [^3H]-purines released
Adenosine, proportional release [3]: (4.0 ± 0.5) percentage of the total [^3H]-purines released
Inosine, proportional release [3]: (14.0 ± 1.7) percentage of the total [^3H]-purines released
ADP, radioactivity released in the culture medium ([4]; 1 hour): 2.10 ± 0.31 cpm × 10^3
AMP, proportional release ([4]; 1 hour): (23.5 ± 2.4) percentage of the total [^3H]-purines released
AMP, radioactivity released in the culture medium ([4]; 1 hour): 2.76 ± 0.28 cpm × 10^3
ATP, proportional release ([4]; 1 hour): (10.9 ± 1.1) percentage of the total [^3H]-purines released
ATP, radioactivity released in the culture medium ([4]; 1 hour): 1.28 ± 0.13 cpm × 10^3
Adenosine, radioactivity released in the culture medium ([4]; 1 hour): 0.47 ± 0.06 cpm × 10^3
Hypoxanthine, proportional release ([4]; 1 hour): (18.4 ± 2.6) percentage of the total [^3H]-purines released
Hypoxanthine, radioactivity released in the culture medium ([4]; 1 hour): 2.20 ± 0.31 cpm × 10^3
Inosine, radioactivity released in the culture medium ([4]; 1 hour): 1.65 ± 0.2 cpm × 10^3
ADP, proportional release ([4]; 3 hours): (8.6 ± 0.7) percentage of the total [^3H]-purines released
ADP, radioactivity released in the culture medium ([4]; 3 hours): 1.05 ± 0.09 cpm × 10^3
AMP, proportional release ([4]; 3 hours): (40.0 ± 3.9) percentage of the total [^3H]-purines released
AMP, radioactivity released in the culture medium ([4]; 3 hours): 4.32 ± 0.48 cpm × 10^3
ATP, proportional release ([4]; 3 hours): (4.4 ± 0.4) percentage of the total [^3H]-purines released
ATP, radioactivity released in the culture medium ([4]; 3 hours): 0.54 ± 0.05 cpm × 10^3
Adenosine, proportional release ([4]; 3 hours): (2.5 ± 0.2) percentage of the total [^3H]-purines released
Adenosine, radioactivity released in the culture medium ([4]; 3 hours): 0.31 ± 0.02 cpm × 10^3
Hypoxanthine, proportional release ([4]; 3 hours): (25.0 ± 3.7) percentage of the total [^3H]-purines released
Hypoxanthine, radioactivity released in the culture medium ([4]; 3 hours): 3.11 ± 0.45 cpm × 10^3
Inosine, proportional release ([4]; 3 hours): (9.7 ± 1.2) percentage of the total [^3H]-purines released
Inosine, radioactivity released in the culture medium ([4]; 3 hours): 1.19 ± 0.19 cpm × 10^3
neurite outgrowth in the absence of NGF ([5]; compound alone): elicited neurite outgrowth on its own
enhancement of NGF-induced neurite outgrowth ([5]; in the presence of NGF, 48 hours): did enhance neuritogenesis in the presence of NGF
cGMP in PC12 cells [6]: did not increase levels of cGMP

CN1[C@@H]2CC[C@H]1C[C@@H](OC(=O)C(CO)c1ccccc1)C2 (stereo partly drawn) [atropine]
effect of atropine on memory enhancement by AIT-082 [7]: blocked the memory enhancing activity of AIT-082
